Assay results as given in US10781215B2, “Heterobicyclic compounds useful as modulators of IL-12, IL-23 and/or IFNα responses” (BRISTOL-MYERS SQUIBB COMPANY, priority 2016, dated 2020).

Legend:
[1] = tested on: IL-23 stimulated Kit225 T cells (STAT-dependent luciferase reporter); experiment: Kit225 T cell assay, IL-23 stimulated STAT-dependent luciferase reporter; format: cell-based; conditions: 20 ng/mL human recombinant IL-23, 5-6 hours
Procedure: (§1) Kit225 T cells with a stably-integrated STAT-dependent luciferase reporter were plated in RPMI (Gibco) containing 10% heat-inactivated FBS (Gibco) and 100 U/mL PenStrep (Gibco). The cells were then stimulated with either 20 ng/mL human recombinant IL-23 or 200 U/mL human recombinant IFNα (PBL InterferonSource) for 5-6 hours. Luciferase expression was measured using the STEADY-GLO® Luciferase Assay System (Promega) according to the manufacturer's instructions. Inhibition data were calculated by comparison to no inhibitor control wells for 0% inhibition and non-stimulated control wells for 100% inhibition. Dose response curves were generated to determine the concentration required to inhibit 50% of cellular response (IC50) as derived by non-linear regression analysis.

[2] = tested on: IFNα stimulated Kit225 T cells (STAT-dependent luciferase reporter); experiment: Kit225 T cell assay, IFNα stimulated STAT-dependent luciferase reporter; format: cell-based; conditions: 200 U/mL human recombinant IFNα, 5-6 hours
Procedure: as §1

[3] = target: T1, recombinant human His-tagged Tyk2 pseudokinase domain (His-TVMV-Tyk2, 575-869) (Homo sapiens, UniProt P29597); experiment: Probe displacement assay (HTRF format); format: binding; conditions: fluorescein labeled probe, Tyk2 pseudokinase domain 0.5 nM
T1 construct: made in house
Procedure: To 10 μL 26 nM fluorescein labeled probe plus 0.2 nM anti-6×His-terbium labeled antibody (Medarex, labeled by Cisbio) in assay buffer (20 mM Hepes pH 7.5, 150 mM NaCl, 10 mM MgCl2, 2 mM DTT, 50 μg/mL BSA, and 0.015% Brij 35) was added 10 μL recombinant human His-tagged Tyk2 pseudokinase domain (His-TVMV-Tyk2, 575-869) to a final concentration of 0.5 nM. After 1 h at room temperature, the HTRF signal (ratio of fluorescence intensities at emission wavelengths for fluorescein acceptor at 520 nm and terbium donor at 495 nm) was measured on an Envision Plate Reader. Percent inhibition was calculated by comparison to a control without inhibitor and a control without protein. Dose response curves were generated to determine the concentration required for inhibiting 50% of the HTRF signal (EC50).

T1 sequence (P29597 with tags, fused parts or gaps): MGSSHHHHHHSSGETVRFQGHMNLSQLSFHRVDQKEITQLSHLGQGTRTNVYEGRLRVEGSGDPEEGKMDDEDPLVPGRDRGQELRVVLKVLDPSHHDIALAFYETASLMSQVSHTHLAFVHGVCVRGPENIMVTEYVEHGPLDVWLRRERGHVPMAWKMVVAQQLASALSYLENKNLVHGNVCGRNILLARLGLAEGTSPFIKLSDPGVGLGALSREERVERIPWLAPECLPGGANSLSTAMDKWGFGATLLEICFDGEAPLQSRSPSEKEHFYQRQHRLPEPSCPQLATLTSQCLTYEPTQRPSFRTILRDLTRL

| IC50 [1] [µM] | IC50 [2] [µM] | EC50 [3] [µM] | SMILES |
| --- | --- | --- | --- |
| 0.742 | 0.307 | 0.0006 | Cc1cnc(Nc2cc(Nc3ncccc3S(C)(=O)=O)c3nc(C)[nH]c3n2)cn1 [Example 48, 7-N-(3-methanesulfonylpyridin-2-yl)-2-methyl-5-N-(5-methylpyrazin-2-yl)-3H-imidazo[4,5-b]pyridine-5,7-diamine] |
| 0.107 | 0.098 | 0.0007 | Cc1cccc(Nc2cc(Nc3ncccc3S(C)(=O)=O)c3nc(C)[nH]c3n2)n1 [Example 49, 7-N-(3-methanesulfonylpyridin-2-yl)-2-methyl-5-N-(6-methylpyridin-2-yl)-3H-imidazo[4,5-b]pyridine-5,7-diamine] |
| 0.367 | 0.267 | 0.0011 | Cc1nc2c(Nc3ncccc3S(C)(=O)=O)cc(Nc3ccc(N4CCOCC4)cn3)nc2[nH]1 [Example 50, 7-N-(3-methanesulfonylpyridin-2-yl)-2-methyl-5-N-[5-(morpholin-4-yl)pyridin-2-yl]-3H-imidazo[4,5-b]pyridine-5,7-diamine] |
